# According to patent publication US7947719B2, “Biologically active compounds obtainable from Sorangium cellulosum” (Hemholtz-Zentrum fur Infektionsforschung GmbH, priority 2005, dated 2011):
# Columns and labels:
# Format in all cases: cell-based
# [1] = test system: Escherichia coli (DMSZ 5347); experiment: Minimal inhibitory concentration against micro-organisms
# Description: (§1) As an example for compounds according to the invention, Disorazole Z has been analyzed for biological activity following the methods as disclosed in Irschik et al. (The Sorangicins, novel and powerful inhibitors of eubacterial RNA polymerase isolated from myxobacteria, J. Antibiotics 40: 7-13 (1987)). The following minimal inhibitory concentrations against organisms were found: […]
# Rhodotorula glutinis = experiment: as above
# Description: as §1
# Pythium debaryanum = experiment: as above; conditions: Globisporangium debaryanum
# Description: as §1
# Botrytis cinerea = experiment: as above
# Description: as §1
# Saccharomyces cerevisiae = experiment: as above
# Description: as §1
# Mucor hiemalis = experiment: as above
# Description: as §1
# Staphylococcus aureus = experiment: as above
# Description: as §1
# [2] = test system: mouse fibroblast cell line L929 (ATCC CCL 1); experiment: Toxicity against mouse fibroblast cell line L929; conditions: L929 (ATCC CCL 1) mouse fibroblasts; read-out: inhibitory concentration IC50 (toxicity)
# Procedure: The toxicity tested against the mouse fibroblast cell line L929 (ATCC CCL 1) according to Sasse et al. (J. Antibiotics 56:827-831 (2003)), an inhibitory concentration IC50 of 30 pg/mL was determined.
compound,measurement,setting,value
C/C=C/C(O)C(C)(C(=O)OC)C1C\C=C/C=C/C=C/c2nc(co2)C(=O)OC(C(C)(C(=O)OC)C(O)/C=C/C)C\C=C/C=C/C=C/c2nc(co2)C(=O)O1 (centres unmarked) [Disorazole Z],MIC,[1],> 25 µg/mL
same,MIC,Rhodotorula glutinis,3 µg/mL
same,MIC,Pythium debaryanum,3 µg/mL
same,MIC,Botrytis cinerea,6 µg/mL
same,MIC,Saccharomyces cerevisiae,> 6 µg/mL
same,MIC,Mucor hiemalis,> 6 µg/mL
same,MIC,Staphylococcus aureus,> 25 µg/mL
same,IC50,[2],0.03 ng/mL
